Where “and” joins values, the source holds several entries; their conditions need not be identical. Equal values may be shown once.
Columns and labels:
Test in all cases: In vitro percent disease control (radii of spore growth on agar)
Assay type in all cases: cell-based
Glomerella cingulata = details: for inhibition of growth at 50 ppm / inhibition of growth at 100 ppm: Colletotrichum gloeosporioides, read-out: % controlled, Glo.
Method: (§1) The compounds of this invention were dissolved respectively in acetone in an amount equal to 10% of the final volume and then in purified water at the concentration of 100 ppm and 50 ppm.
(§2) Each of the solution was mixed with potato-sucrose-agar medium in a 6" petri dish and one of the fungi was spotted at the center of the dish. The dish was incubated in growth room for several days. The percent disease control was derived from the radii of spore growth. The screening tests in vitro condition are well-known to those skilled in the art.
(§3) The following fungi were used for the screening.
5) Glo.; Glomerella cingulata

Phytophthora capsisi = details: Phytophthora, read-out: % controlled, Phy ca.
Method: as §1, §2, §3
2) Phy. ca.; Phytophthora capsisi

[1] = test system: Botryosphaeria dothidea Macrophoma sp.; details: for inhibition of growth at 50 ppm / inhibition of growth at 100 ppm: Botryosphaeria dothidea, read-out: % controlled, Bo.do (Ma.)
Method: as §1, §2, §3
4) Bo.do(Ma); Botryosphaeria dothidea Macrophoma sp.

Rhizopus sp. = details: Rhizopus, read-out: % controlled, Rhi. sp.
Method: as §1, §2, §3

Alternaria mali = details: for inhibition of growth at 50 ppm / inhibition of growth at 100 ppm: Alternaria mali, read-out: % controlled, Al.
Method: as §1, §2, §3

Rhizoctonia solani = details: Rhizoctonia solani, read-out: % controlled, Rhy. so.
Method: as §1, §2, §3
7) Rhi.so.; Rhizoctonia solani

Physalospora baccae = details: read-out: % controlled, Phy ba.
Method: as §1, §2, §3
3) Phy. ba.; Physalospora baccae

Pyricalaria oryzae = details: for inhibition of growth at 50 ppm: read-out: % controlled, Py. or., 50 ppm; for inhibition of growth at 100 ppm: read-out: % controlled, Py. or., 100 ppm
Method: as §1, §2, §3
6) Py.or.; Pyricalaria oryzae

Fusarium moniliforme = test system: Fusarium moniliforme
Method: as §1, §2, §3
8) Fu.mo.; Fusarium moniliforme

Botry tris cinerea = details: for inhibition of growth at 50 ppm / inhibition of growth at 100 ppm: read-out: % controlled, Bo ci.
Method: as §1, §2, §3
10) Bo.ci.; Botry tris cinerea

| Structure (SMILES) | inhibition of growth at 50 ppm (Glomerella cingulata; 50 ppm) | inhibition of growth at 100 ppm (Glomerella cingulata; 100 ppm) | inhibition of growth at 50 ppm (Phytophthora capsisi) | inhibition of growth at 100 ppm (Phytophthora capsisi) | inhibition of growth at 50 ppm ([1]; 50 ppm) | inhibition of growth at 100 ppm ([1]; 100 ppm) | inhibition of growth at 50 ppm (Rhizopus sp.) | inhibition of growth at 100 ppm (Rhizopus sp.) | inhibition of growth at 50 ppm (Alternaria mali; 50 ppm) | inhibition of growth at 100 ppm (Alternaria mali; 100 ppm) | inhibition of growth at 50 ppm (Rhizoctonia solani) | inhibition of growth at 100 ppm (Rhizoctonia solani) | inhibition of growth at 50 ppm (Physalospora baccae) | inhibition of growth at 100 ppm (Physalospora baccae) | inhibition of growth at 50 ppm (Pyricalaria oryzae) | inhibition of growth at 100 ppm (Pyricalaria oryzae) | % controlled, Fu. mo. (Fusarium moniliforme; 50 ppm) | % controlled, Fu. mo. (Fusarium moniliforme; 100 ppm) | inhibition of growth at 50 ppm (Botry tris cinerea) | inhibition of growth at 100 ppm (Botry tris cinerea; 100 ppm) | also measured |
| --- | --- | --- | --- | --- | --- | --- | --- | --- | --- | --- | --- | --- | --- | --- | --- | --- | --- | --- | --- | --- | --- |
| C=CC[Si](Cn1cncn1)(C[Si](CC=C)(c1ccc(F)cc1)c1ccc(-c2ccccc2)cc1)c1ccc(F)cc1 (stereo not drawn) [4,6-(4-fluorophenyl)-6-(4-phenylphenyl)-4,6-disila-4-(1H-1,2,4-triazol-1-ylmethyl)-1,8-nonadiene] | 85% | 87% | 75% | 75% | 79% | 79% | 56% | 56% | 62% | 65% | 90% | 96% | 60% | 65% | 100% | 100% | 40% | 46% |  |  |  |
| C=CC[Si](C[Si](C)(Cn1cncn1)c1ccc(F)cc1)(c1ccccc1)c1ccc(-c2ccccc2)cc1 (stereo not drawn) | 100% | 100% | 27% | 50% | 100% | 100% | 100% | 100% | 78% | 100% |  |  | 100% | 100% | 85% | 100% | 100% | 100% | 86% | 100% |  |
| C[Si](C)(C)C[Si](Cn1cncn1)(c1ccc(F)cc1)c1ccc(F)cc1 [2,2-bis(4-fluorophenyl)-4,4-dimethyl-2,4-disila-1-(1H-1,2,4-triazol-1-yl)pentane] | 60% | 67% | 6% | 6% | 31% | 37% | 24% | 29% | 32% | 35% | 60% | 67% | 20% | 24% | 57% | 61% | 31% | 34% |  |  |  |
| C=CC[Si](CC=C)(Cn1cncn1)C[Si](CC=C)(CC=C)c1ccccc1 [6-phenyl-4,6-bis(2-propenyl)-4,6-disila-4-(1H-1,2,4-triazol-1-ylmethyl)-1,8-nonadiene] | 70% | 87% | 60% | 70% | 65% | 70% | 50% | 50% | 75% | 79% |  |  | 60% | 69% | 60% | 90% | 46% | 46% | 80% | 96% |  |
| C[Si](C)(C[Si](Cn1cncn1)(c1ccc(F)cc1)c1ccc(-c2ccccc2)cc1)c1ccc(F)cc1 (stereo not drawn) [2,4-bis(4-fluorophenyl)-2-(4-phenylphenyl)-4-methyl-2,4-disila-1-(1H-1,2,4-triazol-1-yl)pentane] | 87% | 87% | 12% | 14% |  |  |  |  |  |  |  |  |  |  |  |  | 46% and 41% | 46% and 45% |  |  | % controlled, Glo. (Glomerella cingulata; 50 ppm): 76%; % controlled, Glo. (Glomerella cingulata; 100 ppm): 78%; % controlled, Bo.do (Ma.) ([1]; 50 ppm): 79% and 43%; % controlled, Bo.do (Ma.) ([1]; 100 ppm): 79% and 51%; % controlled, Al. (Alternaria mali; 50 ppm): 75% and 38%; % controlled, Al. (Alternaria mali; 100 ppm): 79% and 46%; % controlled, Bo ci. (Botry tris cinerea; 100 ppm): 90% and 47%; % controlled, Py. or. (Pyricalaria oryzae; 50 ppm): 100% and 50%; % controlled, Py. or. (Pyricalaria oryzae; 100 ppm): 100% and 50% |
